{"source": "patent US20200069775A1", "about": "“BRAIN OSTEOCALCIN RECEPTOR AND COGNITIVE DISORDERS” (The Trustees of Columbia University in the City of New York, priority 2017, published 2020)", "key": {"[1]": {"target": "T1, complex containing Gpr158 and the G[…]q subunit (Mus musculus, UniProt Q8C419)", "T1 construct": "Pull-down assay using biotinylated-osteocalcin on solubilized Ocn−/− hippocampal membrane; from tissue; host or cells: hippocampi of Ocn-/- mice, membranes solubilized with n-octyl beta-D-thioglucopyranoside", "T1 sequence (Q8C419 25-1200)": "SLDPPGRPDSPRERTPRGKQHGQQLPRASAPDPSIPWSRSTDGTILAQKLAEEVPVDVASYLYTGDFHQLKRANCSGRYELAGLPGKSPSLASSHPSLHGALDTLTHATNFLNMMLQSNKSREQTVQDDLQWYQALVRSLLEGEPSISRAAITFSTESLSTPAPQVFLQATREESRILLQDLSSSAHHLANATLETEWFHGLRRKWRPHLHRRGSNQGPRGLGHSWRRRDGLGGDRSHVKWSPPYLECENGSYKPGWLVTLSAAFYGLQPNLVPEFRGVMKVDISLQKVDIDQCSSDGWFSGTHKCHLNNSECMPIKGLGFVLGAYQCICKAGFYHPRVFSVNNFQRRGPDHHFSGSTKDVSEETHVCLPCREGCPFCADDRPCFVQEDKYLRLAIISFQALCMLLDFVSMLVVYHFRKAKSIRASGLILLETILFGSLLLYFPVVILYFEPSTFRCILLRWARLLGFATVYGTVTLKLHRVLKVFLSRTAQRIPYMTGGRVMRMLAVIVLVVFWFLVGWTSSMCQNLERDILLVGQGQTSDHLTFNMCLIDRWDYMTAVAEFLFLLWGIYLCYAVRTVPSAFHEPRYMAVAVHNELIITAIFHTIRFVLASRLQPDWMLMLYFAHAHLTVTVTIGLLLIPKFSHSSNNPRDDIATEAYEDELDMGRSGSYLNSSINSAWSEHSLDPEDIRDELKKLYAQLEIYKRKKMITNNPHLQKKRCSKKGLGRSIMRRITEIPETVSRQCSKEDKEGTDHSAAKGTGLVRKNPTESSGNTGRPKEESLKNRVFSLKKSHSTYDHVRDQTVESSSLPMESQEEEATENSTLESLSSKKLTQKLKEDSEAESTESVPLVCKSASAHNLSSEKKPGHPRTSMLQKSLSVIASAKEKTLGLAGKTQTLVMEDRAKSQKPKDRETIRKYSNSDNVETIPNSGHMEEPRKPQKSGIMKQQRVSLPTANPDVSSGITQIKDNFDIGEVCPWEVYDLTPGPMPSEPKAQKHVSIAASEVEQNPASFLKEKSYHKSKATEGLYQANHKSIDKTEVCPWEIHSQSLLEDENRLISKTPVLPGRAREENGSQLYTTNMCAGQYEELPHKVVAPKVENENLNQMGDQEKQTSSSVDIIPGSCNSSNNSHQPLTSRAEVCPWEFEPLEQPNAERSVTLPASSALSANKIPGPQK", "T1 sequence (P21279 1-359 partner)": "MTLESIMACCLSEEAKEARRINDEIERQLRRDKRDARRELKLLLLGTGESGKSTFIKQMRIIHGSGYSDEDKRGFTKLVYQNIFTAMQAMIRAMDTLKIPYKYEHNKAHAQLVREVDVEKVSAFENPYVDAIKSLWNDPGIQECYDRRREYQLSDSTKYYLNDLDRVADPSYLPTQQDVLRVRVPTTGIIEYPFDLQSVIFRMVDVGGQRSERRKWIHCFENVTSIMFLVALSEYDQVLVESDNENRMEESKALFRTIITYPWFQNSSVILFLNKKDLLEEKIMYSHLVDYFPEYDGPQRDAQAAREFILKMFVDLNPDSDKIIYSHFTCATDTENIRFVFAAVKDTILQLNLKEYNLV", "assay": "Pull-down assay with biotinylated osteocalcin on solubilized hippocampal membranes", "format": "binding", "settings": "solubilized membranes from hippocampal tissue", "procedure": "For Western blotting, frozen hippocampi from adult mice were lysed and homogenized in 250 µl tissue lysis buffer (25 mM Tris HCl 7.5; 100 mM NaF; 10 mM Na4P2O7; 10 mmM EDTA; 1% NP 40). Proteins were transferred to nitrocellulose membranes, and blocked with TBST-5% BSA for 1 hour. Antibodies: anti-Runx2 M-70 sc-10758, Santa Cruz, anti-BDNF: sc-546, Santa Cruz; anti-tubulin: T6199, Sigma; anti-Gpr158 ABIN1535721, Assay Biotechnology; anti-Na,K ATPase 3010S Cell Signaling , were diluted (1:1000) in TBST-5% BSA and incubated overnight at 4° C. HRP-coupled secondary antibodies and ECL were used to visualize the signal. Western blot bands were quantified using ImageJ software. cAMP accumulation was measured in primary hippocampal neurons by using cAMP Parameter Assay Kit (R&D systems) and performed in primary hippocampal neurons (DIV15) following manufacturer instructions. For IP1 accumulation was determined in primary hippocampal neurons (DIV15) by using IP-One ELISA assay kit (Cisbio) following manufacturer instructions. […]\nStreptavidin were added for 30 minutes at room temperature followed by PBS washes. […] For hormonal measurement; circulating levels of the carboxylated, undercarboxylated or uncarboxylated forms of osteocalcin were measured by ELISA. CTX content in serum (ng/ml) were measured with specific ELISAs (RatLaps™ (CTX-I) EIA (Immunodiagnosticsystems)."}, "[2]": {"tested_on": "neurons in WT brain sections (ventral tegmental area, substantia nigrae, raphe nuclei)", "assay": "Binding of biotinylated osteocalcin to brain sections (anti-biotin immunofluorescence)", "parameters": "species or system mouse", "procedure": "Brains from 8-week-old mice were snap-frozen in isopentane, and […] thick sections were prepared and desiccated overnight at 4° C. under vacuum. On the following day, sections were rehydrated in ice-cold binding buffer (50 mM TrisHCl [pH 7.4], 10 mM MgCl2, 0.1 mM EDTA and 0.1% BSA) for 15 min and incubated for 1 hr in the presence of biotinylated osteocalcin (3, 30, 300, 3000 ng/ml) or biotynylated recombinant GST as a control (10 μg/ml). After washing in harvesting buffer (50 mM Tris-HCl, pH 7.4), samples were fixed in 4% paraformaldehyde for 15 min, washed in PBS and incubated with goat anti-biotin antibody (1:1000, Vector laboratories) over night at 4° C. Signal was visualized by incubating with anti-goat IgG Cy-3 using Leica DM 5000B microscope (Leica). The binding assays were perform on adjacent sections for each conditions tested. […] This was tested by incubating sections of adult or embryonic (E18.5) WT brains with biotinylated undercarboxylated osteocalcin or GST-biotin alone (30 μg/ml), followed by immunofluorescence analysis using an anti-biotin antibody."}}, "note": "Where no end group is shown, it is not given here.", "data": [{"substance": "biotinylated osteocalcin: biotin-labelled undercarboxylated osteocalcin used for binding and pull-down assays (YLGASVPSPDPLEPTREQCELNPACDELSDQYGLKTAYKRIYGITI; ends and bridges not checked; also: biotin label, attachment site not given here)", "values": [{"measurement": "binding in pull-down assay", "setting": "[1]", "result": "could bind a complex containing Gpr158 and the G[…]q subunit"}, {"measurement": "binding in the brainstem", "setting": "[2]; WT brain sections", "result": "bound to neurons of the raphe nuclei"}, {"measurement": "binding in the midbrain", "setting": "[2]; WT brain sections", "result": "bound to the ventral tegmental area and the substantia nigrae"}, {"measurement": "binding to neuronal populations in brain sections", "setting": "[2]; adult or embryonic (E18.5) WT brain sections", "result": "bound to several neuronal populations in the forebrain, midbrain, and brainstem"}, {"measurement": "specificity of binding in midbrain and brainstem (competition)", "setting": "[2]; excess of unlabeled osteocalcin or of GST", "result": "specific since it was chased away by an excess of unlabeled osteocalcin but not by an excess of GST"}]}]}
